ChEMBL document CHEMBL5376011, “Discovery of Anti-Hypercholesterolemia Agents Targeting LXRα from Marine Microorganism-Derived Natural Products” (J Nat Prod, 2024)
Calls of active or inactive are those of the source.

Tests used:
Mus musculus [1] = experiment: Antihypercholesterolemic activity against high cholesterol diet fed C57BL/6J mouse assessed as reduction in hepatocyte lysis necrosis at 300 microg/kg, ip administered every 2 days for 15 days by H&E staining based analysis; format: functional, organism-based; settings: dose 300.0 µg/kg, time 15.0 day
HepG2 [2] = experiment: Effect on ABCG1 mRNA expression in human HepG2 cells at 25 uM incubated for 24 hrs by RT-qPCR analysis; format: functional, cell-based
Mus musculus [3] = experiment: Antihypercholesterolemic activity against high cholesterol diet fed LXRalpha knockout C57BL/6J mouse assessed as improvement in hepatic steatosis at 300 microg/kg, ip administered every 2 days for 15 days by H&E staining based analysis; format: functional, organism-based; settings: dose 300.0 µg/kg, time 15.0 day
[4] = target: T1, Oxysterols receptor LXR-alpha (Homo sapiens) (UniProt Q13133); experiment: Agonist activity at LXRalpha in human HepG2 cells assessed as upregulation of CYP7A1 protein expression level at 25 uM incubated for 24 hrs by Western blot analysis; format: cell-based; settings: filed as agonist
T1 sequence (whole entry): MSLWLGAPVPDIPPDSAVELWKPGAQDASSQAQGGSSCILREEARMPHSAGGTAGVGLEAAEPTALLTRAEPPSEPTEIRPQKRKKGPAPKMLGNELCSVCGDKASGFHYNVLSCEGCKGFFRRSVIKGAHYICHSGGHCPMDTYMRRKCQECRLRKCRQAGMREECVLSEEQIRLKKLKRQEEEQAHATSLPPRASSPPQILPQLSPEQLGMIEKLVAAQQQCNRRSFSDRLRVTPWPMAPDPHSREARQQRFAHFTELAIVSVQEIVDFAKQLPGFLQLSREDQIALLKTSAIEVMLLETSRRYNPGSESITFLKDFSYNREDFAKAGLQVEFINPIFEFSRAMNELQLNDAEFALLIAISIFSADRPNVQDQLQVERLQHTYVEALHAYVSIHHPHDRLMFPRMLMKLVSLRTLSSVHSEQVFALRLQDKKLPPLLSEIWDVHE

Mus musculus [5] = experiment: Antihypercholesterolemic activity against high cholesterol diet induced C57BL/6J mouse assessed as reduction in plasma low-density lipoprotein cholesterol level at 300 microg/kg, ip administered every 2 days for 15 days; format: functional, organism-based; settings: dose 300.0 µg/kg, time 15.0 day
HepG2 [6] = experiment: (§1) Improvement of lipid metabolism in palmitic acid and oleic acid induced human HepG2 cell model of hepatic steatosis assessed as reduction in total cellular cholesterol level at 25 uM preincubated with palmitic acid and oleic acid for 48 hrs followed by compound addition and measured after 24 hrs; format: functional, cell-based
Mus musculus [7] = experiment: Antihypercholesterolemic activity against high cholesterol diet fed C57BL/6J mouse assessed as improvement in hepatocyte liposis at 300 microg/kg, ip administered every 2 days for 15 days by H&E staining based analysis; format: functional, organism-based; settings: dose 300.0 µg/kg, time 15.0 day
Mus musculus [8] = experiment: Antihypercholesterolemic activity against high cholesterol diet fed C57BL/6J mouse assessed as reduction of fine vacuoles in the cytoplasm at 300 microg/kg, ip administered every 2 days for 15 days by H&E staining based analysis; format: functional, organism-based; settings: dose 300.0 µg/kg, time 15.0 day
Mus musculus [9] = experiment: Antihypercholesterolemic activity against high cholesterol diet fed C57BL/6J mouse assessed as reduction in degree of hepatic steatosis at 300 microg/kg, ip administered every 2 days for 15 days by Oil red staining based analysis; format: functional, organism-based; settings: dose 300.0 µg/kg, time 15.0 day
Mus musculus [10] = experiment: Antihypercholesterolemic activity against high cholesterol diet induced C57BL/6J mouse assessed as reduction in total cholesterol level in plasma at 300 microg/kg, ip administered every 2 days for 15 days; format: functional, organism-based; settings: dose 300.0 µg/kg, time 15.0 day
Mus musculus [11] = experiment: Antihypercholesterolemic activity against high cholesterol diet induced C57BL/6J mouse assessed as reduction in hepatocyte damage at 300 microg/kg, ip administered every 2 days for 15 days; format: functional, organism-based; settings: dose 300.0 µg/kg, time 15.0 day
Mus musculus [12] = experiment: Antihypercholesterolemic activity against high cholesterol diet fed LXRalpha knockout C57BL/6J mouse assessed as improvement in hepatocellular degeneration at 300 microg/kg, ip administered every 2 days for 15 days by Oil red staining based analysis; format: functional, organism-based; settings: dose 300.0 µg/kg, time 15.0 day
Mus musculus [13] = experiment: Antihypercholesterolemic activity against high cholesterol diet fed LXRalpha knockout C57BL/6J mouse assessed as reduction in serum low density lipoprotein cholesterol level at 300 microg/kg, ip administered every 2 days for 15 days; format: functional, organism-based; settings: dose 300.0 µg/kg, time 15.0 day
Mus musculus [14] = experiment: Antihypercholesterolemic activity against high cholesterol diet fed C57BL/6J mouse assessed as improvement in hepatocyte liposis at 300 microg/kg, ip administered every 2 days for 15 days by Oil red staining based analysis; format: functional, organism-based; settings: dose 300.0 µg/kg, time 15.0 day
Mus musculus [15] = experiment: Antihypercholesterolemic activity against high cholesterol diet fed C57BL/6J mouse assessed as reduction in hepatocyte lysis necrosis at 300 microg/kg, ip administered every 2 days for 15 days by Oil red staining based analysis; format: functional, organism-based; settings: dose 300.0 µg/kg, time 15.0 day
Mus musculus [16] = experiment: Antihypercholesterolemic activity against high cholesterol diet induced C57BL/6J mouse assessed as reduction in serum aspartate aminotransferase level at 300 microg/kg, ip administered every 2 days for 15 days; format: functional, organism-based; settings: dose 300.0 µg/kg, time 15.0 day
[17] = target: T1, Oxysterols receptor LXR-alpha (Homo sapiens); experiment: Agonist activity at LXRalpha in human HepG2 cells assessed as upregulation of CYP7A1 mRNA expression by measuring fold change at 25 uM incubated for 24 hrs by RT-qPCR analysis; format: cell-based; settings: filed as agonist
Mus musculus [18] = experiment: Antihypercholesterolemic activity against high cholesterol diet fed LXRalpha knockout C57BL/6J mouse assessed as improvement in hepatocellular degeneration at 300 microg/kg, ip administered every 2 days for 15 days by H&E staining based analysis; format: functional, organism-based; settings: dose 300.0 µg/kg, time 15.0 day
Mus musculus [19] = experiment: Antihypercholesterolemic activity against high cholesterol diet fed C57BL/6J mouse assessed as reduction in SCD1 protein level at 300 microg/kg, ip administered every 2 days for 15 days by Western blot analysis; format: functional, organism-based; settings: dose 300.0 µg/kg, time 15.0 day
Mus musculus [20] = experiment: Antihypercholesterolemic activity against high cholesterol diet fed C57BL/6J mouse assessed as improvement in hepatocyte degeneration at 300 microg/kg, ip administered every 2 days for 15 days by Oil red staining based analysis; format: functional, organism-based; settings: dose 300.0 µg/kg, time 15.0 day
HepG2 [21] = experiment: as §1, with “reduction in lipid droplets at 25” for “reduction in total cellular cholesterol level at 25”, “24 hrs by Oil Red O staining based analysis” for “24 hrs”; format: functional

COc1ccc2c(C[C@@H]3NC(=O)[C@@H]4CCCN4C3=O)c(CC=C(C)C)[nH]c2c1 [TRYPROSTATIN A]
active: Activity (Mus musculus [1]) | Activity (Mus musculus [3]) | Activity [4] | Activity (Mus musculus [5]) | Activity (HepG2 [6]) | Activity (Mus musculus [7]) | Activity (Mus musculus [8]) | Activity (Mus musculus [9]) | Activity (Mus musculus [10]) | Activity (Mus musculus [11]) | Activity (Mus musculus [12]) | Activity (Mus musculus [14]) | Activity (Mus musculus [15]) | Activity (Mus musculus [16]) | Activity (Mus musculus [18]) | Activity (Mus musculus [19]) | Activity (Mus musculus [20]) | Activity (HepG2 [21])
5.01: fold change (FC) [17]
inactive: Activity (HepG2 [2]) | Activity (Mus musculus [13])
